Laboratory results taken from ChEMBL document CHEMBL4196109, “Chemical Strategies for Half-Life Extension of Biopharmaceuticals: Lipidation and Its Alternatives” (ACS Med Chem Lett, 2018).

Experiments:
Albumin = Albumin (Homo sapiens, UniProt P02768); assay: Binding affinity to human albumin; format: ADME; conditions: isolated protein
Homo sapiens = assay: Half life in sc dosed human; format: ADME, organism-based; conditions: in vivo

Sequence of Albumin (P02768 whole entry): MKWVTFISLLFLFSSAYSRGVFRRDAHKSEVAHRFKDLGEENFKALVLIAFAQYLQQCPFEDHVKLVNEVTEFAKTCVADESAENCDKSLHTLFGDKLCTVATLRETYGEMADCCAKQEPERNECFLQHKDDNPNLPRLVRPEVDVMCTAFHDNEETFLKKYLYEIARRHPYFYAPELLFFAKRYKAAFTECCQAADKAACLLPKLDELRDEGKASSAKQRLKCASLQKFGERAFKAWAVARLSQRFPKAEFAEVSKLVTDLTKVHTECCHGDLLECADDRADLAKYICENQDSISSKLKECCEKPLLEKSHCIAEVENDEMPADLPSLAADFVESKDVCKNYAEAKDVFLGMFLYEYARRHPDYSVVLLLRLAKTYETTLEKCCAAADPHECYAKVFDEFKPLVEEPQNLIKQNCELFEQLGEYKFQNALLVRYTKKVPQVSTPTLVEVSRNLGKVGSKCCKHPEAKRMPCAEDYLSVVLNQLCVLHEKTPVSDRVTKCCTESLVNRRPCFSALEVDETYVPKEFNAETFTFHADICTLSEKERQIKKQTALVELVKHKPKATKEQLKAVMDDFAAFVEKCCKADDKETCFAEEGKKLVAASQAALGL

Compound	Activity (Albumin)	t1/2 (Homo sapiens)
NC(=O)[C@H](CCCCNC(=O)CSC[C@H](N)C(=O)O)NC(=O)COCCOCCNC(=O)CC[C@H](NC(=O)CC[C@H](NC(=O)COCCOCCNC(=O)CCCS(=O)(=O)NC(=O)CCCCCCCCCCCCCCc1nn[nH]n1)C(=O)O)C(=O)O	> 99%	
SEMAGLUTIDE		1 weeks
